pIC50: −log10 of the molar value. Each block holds one compound with its values, some of them ahead of it.
Assays:
[1] = tested on: K562; assay: Cytotoxicity against human K562 cells assessed as cell growth inhibition incubated for 72 hrs by MTT assay; format: functional, cell-based; conditions: K562, 72 h
[2] = tested on: A549; assay: Cytotoxicity against human A549 cells assessed as cell growth inhibition incubated for 72 hrs by MTT assay; format: functional, cell-based; conditions: A549, 72 h
[3] = tested on: Plasmodium falciparum; assay: Antimalarial activity against chloroquine sensitive Plasmodium falciparum NF54 assessed as inhibition of parasite growth incubated for 72 hrs by [3H]-hypoxanthine incorporation assay based liquid scintillation counter; format: functional, organism-based
[4] = tested on: Plasmodium falciparum; assay: Antimalarial activity against chloroquine resistant Plasmodium falciparum K1 assessed as inhibition of parasite growth incubated for 72 hrs by [3H]-hypoxanthine incorporation assay based liquid scintillation counter; format: functional, organism-based
[5] = Toxicity in Sprague-Dawley rat assessed as LOAEL by po administrated gestational day upto 20 days; format: organism-based; conditions: in vivo, 480 h, time < 20 day
[6] = Oral bioavailability in Wistar rat at 100 mg/kg by UPLC-MS/MS analysis; format: ADME, organism-based; conditions: in vivo
[7] = tested on: HaCaT; assay: Cytotoxicity against human HaCaT cells assessed as decrease in cell viability at 50 uM incubated for 1 hr in presence of UV radiation by CellTiter-96 assay; format: toxicity, cell-based
[8] = tested on: HaCaT; assay: Induction of DNA damage in human HaCaT cells assessed as fold change at 50 uM in presence of UV radiation by comet assay; format: toxicity, cell-based
[9] = Toxicity in Sprague-Dawley rat assessed as NOAEL by po administrated gestational day upto 20 days; format: organism-based; conditions: in vivo, time < 20 day
[10] = tested on: AGS; assay: Cytotoxicity against human AGS cells assessed as cell growth inhibition incubated for 48 hrs by WST-1 assay; format: functional, cell-based
[11] = tested on: A2780; assay: Cytotoxicity against human A2780 cells assessed as cell growth inhibition incubated for 48 hrs by WST-1 assay; format: functional, cell-based; conditions: A2780, 48 h
[12] = tested on: MCF7; assay: Cytotoxicity against human MCF7 cells assessed as cell growth inhibition incubated for 48 hrs by WST-1 assay; format: functional, cell-based; conditions: MCF7, 48 h
[13] = tested on: HL-60; assay: Cytotoxicity against human HL-60 cells assessed as cell growth inhibition incubated for 48 hrs by WST-1 assay; format: functional, cell-based; conditions: HL-60, 48 h
[14] = tested on: A549; assay: Cytotoxicity against human A549 cells assessed as cell growth inhibition incubated for 48 hrs by WST-1 assay; format: functional, cell-based; conditions: A549, 48 h
[15] = tested on: Jurkat; assay: Cytotoxicity against human Jurkat cells assessed as cell growth inhibition incubated for 48 hrs by WST-1 assay; format: functional, cell-based
[16] = tested on: BT-549; assay: Cytotoxicity against human BT-549 cells assessed as cell growth inhibition incubated for 48 hrs by WST-1 assay; format: functional, cell-based; conditions: BT-549, 48 h
[17] = tested on: HT-29; assay: Cytotoxicity against human HT-29 cells assessed as cell growth inhibition incubated for 48 hrs by WST-1 assay; format: functional, cell-based; conditions: HT-29, 48 h
[18] = tested on: COLO 201; assay: Cytotoxicity against human COLO201 cells assessed as cell growth inhibition incubated for 48 hrs by WST-1 assay; format: functional, cell-based; conditions: COLO 201, 48 h
[19] = tested on: MOLT-4; assay: Cytotoxicity against human MOLT-4 cells assessed as cell growth inhibition incubated for 48 hrs by XTT assay; format: functional, cell-based; conditions: MOLT-4, 48 h
[20] = tested on: Jurkat; assay: Cytotoxicity against human Jurkat cells assessed as cell growth inhibition incubated for 48 hrs by XTT assay; format: functional, cell-based
[21] = tested on: HL-60; assay: Cytotoxicity against human HL-60 cells assessed as cell growth inhibition incubated for 48 hrs by XTT assay; format: functional, cell-based; conditions: HL-60, 48 h
[22] = tested on: Caco-2; assay: Antiproliferative activity against human Caco-2 cells incubated for 96 hrs by MTT assay; format: functional, cell-based; conditions: Caco-2, 96 h
[23] = tested on: HL-60; assay: Antiproliferative activity against human HL-60 cells incubated for 96 hrs by MTT assay; format: functional, cell-based; conditions: HL-60, 96 h

Structure (SMILES): O[C@H]1/C=C\[C@H]2C[C@]34CN5CCCC/C=C\CC[C@](O)(C=C(c6nccc7c6[nH]c6ccccc67)[C@@H]3CC5)[C@@H]4N2CCC1
pIC50 [1]: 5.28
pIC50 [2]: 5.24

Structure (SMILES): COc1cc(O)c(-c2cc(-c3cc(-c4c(O)cc5c(c4OC)[C@@H](C)N[C@H](C)C5)c4cc(C)cc(OC)c4c3O)c(O)c3c(OC)cc(C)cc23)c2c1[C@H](C)N[C@H](C)C2
pIC50 [3]: 6.38
pIC50 [4]: 6.34

Structure (SMILES): O[C@]12C=C(c3nccc4c3[nH]c3ccccc34)[C@@H]3CCN(CCCC/C=C\CC1)C[C@@]31C[C@@H]3/C=C\CCCCN3[C@H]12 [MANZAMINE A]
pIC50 [1]: 5.28
pIC50 [2]: 5.24

bioavailability [6]: 0.36%
Structure (SMILES): COc1ccc2cc3[n+](cc2c1OC)CCc1cc2c(cc1-3)OCO2 [BERBERINE]
LOAEL [5]: 1313 mg/kg
Activity [7]: 80%
fold change (FC) [8]: 3
NOAEL at 480 h [9]: 420 mg/kg

Structure (SMILES): [O-][N+]1=C([C@H]2[C@@H]3CCN4CCCC/C=C\CC[C@@]5(O[C@@H]25)[C@@H]2NCCCC/C=C\CC[C@@]23C4)c2[nH]c3ccccc3c2CC1
pIC50 [1]: 5.28
pIC50 [2]: 5.24

Structure (SMILES): CO[C@@H]1C=C[C@@]23c4cc5c(cc4CN(C[C@@H]2O)[C@H]3C1)OCO5 [(+)-HAEMANTHAMINE]
pIC50 [10]: 6.52
pIC50 [11]: 6.52
pIC50 [12]: 6.52
pIC50 [13]: 6.52
pIC50 [14]: 6.52
pIC50 [15]: 6.52
pIC50 [16]: 6.52
pIC50 [17]: 6.52
pIC50 [18]: 6.52

Structure (SMILES): C1=C\CC[C@]23CN4CCCC/C=C\CC[C@@]5(O[C@H]5[C@@H](c5nccc6c5[nH]c5ccccc56)[C@@H]2CC4)[C@@H]3NCCCC/1 [MANZAMINE B]
pIC50 [1]: 5.28
pIC50 [2]: 5.24

Structure (SMILES): [O-][n+]1ccc2c([nH]c3ccccc32)c1[C@H]1[C@@H]2CCN3CCCC/C=C\CC[C@@]4(O[C@@H]14)[C@@H]1NCCCC/C=C\CC[C@@]12C3
pIC50 [1]: 5.28
pIC50 [2]: 5.24

Structure (SMILES): COc1ccc2c(c1OC)CN(C)[C@@H]1c3cc4c(cc3C[C@H](O)[C@H]21)OCO4
pIC50 [19]: 5.32
pIC50 [20]: 5.32
pIC50 [21]: 5.32

Structure (SMILES): CO[C@@H]1C=C[C@@]23c4cc5c(cc4[C@H](O)N(C[C@@H]2O)[C@H]3C1)OCO5
pIC50 [10]: 6.52
pIC50 [11]: 6.52
pIC50 [12]: 6.52
pIC50 [13]: 6.52
pIC50 [14]: 6.52
pIC50 [15]: 6.52
pIC50 [16]: 6.52
pIC50 [17]: 6.52
pIC50 [18]: 6.52

Structure (SMILES): O[C@]12C=C(c3nccc4c3[nH]c3ccccc34)[C@@H]3CCN(CCCC/C=C\CC1)C[C@@]31C[C@@]34CC[C@@H](CCCN3[C@H]12)O4
pIC50 [1]: 5.28
pIC50 [2]: 5.24

Structure (SMILES): O[C@H]1[C@H]2c3cc4c(cc3CN3CCC(=C[C@@H]1O)[C@H]23)OCO4 [LYCORINE]
pIC50 [10]: 6.52
pIC50 [11]: 6.52
pIC50 [12]: 6.52
pIC50 [13]: 6.52
pIC50 [14]: 6.52
pIC50 [15]: 6.52
pIC50 [16]: 6.52
pIC50 [17]: 6.52
pIC50 [18]: 6.52

Structure (SMILES): O[C@]12C=C(c3nccc4c3[nH]c3ccccc34)[C@@H]3CCN(CCCC/C=C\CC1)C[C@@]31C[C@@H]3C=C[C@H]4CCC[N@+]43[C@H]12
pIC50 [1]: 5.28
pIC50 [2]: 5.24

Structure (SMILES): O[C@H]1[C@@H](c2nccc3c2[nH]c2ccccc23)[C@@H]2CCN3CCCC/C=C\CC[C@@]1(O)[C@@H]1NCCCC/C=C\CC[C@]21C3
pIC50 [1]: 5.28
pIC50 [2]: 5.24

Structure (SMILES): COc1cc(O)c(-c2cc(-c3cc(-c4c(O)cc5c(c4OC)[C@H](C)N[C@H](C)C5)c4cc(C)cc(OC)c4c3O)c(O)c3c(OC)cc(C)cc23)c2c1[C@H](C)N[C@H](C)C2
pIC50 [3]: 7.47

pIC50 [22]: 5.03
pIC50 [23]: 4.99
Structure (SMILES): COC(=O)c1ccc(OC)c(OC)c1NC(=O)c1cc(C/C=C(\C)c2c3[n+](cc4c(OC)c(OC)ccc24)CCc2cc4c(cc2-3)OCO4)c2c(c1)OCO2

Structure (SMILES): CN1Cc2c(ccc3c2OCO3)[C@@H]2[C@H]1c1cc3c(cc1C[C@@H]2O)OCO3 [CHELIDONINE]
pIC50 [19]: 5.66
pIC50 [20]: 5.66
pIC50 [21]: 5.66

Structure (SMILES): O[C@@H]1CCCN2[C@@H](CC1)C[C@]13CN4CCCC/C=C\CC[C@](O)(C=C(c5nccc6c5[nH]c5ccccc56)[C@@H]1CC4)[C@H]23 [32,33-DIHYDRO-31-HYDROXYMANZAMINE A]
pIC50 [1]: 5.28
pIC50 [2]: 5.24

Structure (SMILES): COc1cc(O)c(-c2cc(-c3cc(-c4c(O)cc5c(c4OC)[C@H](C)N[C@H](C)C5)c4cc(C)cc(OC)c4c3O)c(O)c3c(OC)cc(C)cc23)c2c1[C@@H](C)N[C@H](C)C2
pIC50 [3]: 6.68
pIC50 [4]: 6.86
